Source: US20110070270A1, “IMMUNOSTIMULATING AGENT” (priority 2008, published 2011)

Columns and labels:
mouse spleen cells [1] = experiment: IgA production upon LPS stimulation of mouse spleen cells (ELISA of culture supernatant); assay type: cell-based; conditions: for IgA concentration (amount of IgA production), mean: BALB/c mouse spleen cells, 5 days culture, supernatant; for Ability to promote IgA production upon LPS stimulation: mouse spleen cells, Student's t test, significance level 5%
Source text: (§1) BALB mice (female) of 6 to 8 weeks old were purchased and fed for 1 week for habituation. A commercially available solid feed was used as a feed and tap water was used as water. In order to evaluate influences of cinacalcet and γ-glutamylvaline on antibody producing activity, a culture system using mouse spleen cells was employed. The spleen was collected from BALB-c mice (n=3). The collected spleen cells were washed and thereafter suspended in an RPMI1640 medium (10% FCS, 50 U/ml penicillin, and 50 μg/ml streptomycin). To cells adjusted to 1×10^6 per a 48 well culture plate, cinacalcet or γ-glutamylvaline (dissolved in a sterilized phosphate buffer), or a phosphate buffer as a control was added. And the cells were then stimulated with 5 μg of LPS (lipopolysaccharide, obtained from Sigma). Thereafter, the cells were cultured in a CO2 incubator at 37° C. for 5 days and the amount of IgA antibody in the supernatant was analyzed.
(§2) The amounts of IgA and IgG were measured by the ELISA method. The method for measuring IgG is shown below. 100 μl of rat anti-mouse IgG antibody (Calbiochem, 1 μg/ml in 50 mM sodium carbonate buffer, pH 8.5) solution was added to a 96 well ELISA plate and the plate was incubated at 4° C. overnight to coat each well with the anti-mouse IgG antibody. The plate was washed three times with PBST (phosphate buffered saline, 0.05% Tween 20) and subjected to a blocking treatment with 200 μl of PBS solution containing 2% BSA at 37° C. for 1 hr.
(§3) The plate was washed three times with PBST. Thereafter, 100 μl of the culture supernatant (9 fold diluted with PBST containing 1% BSA) was added and allowed to react at 37° C. for 2 hr. The plate was again washed four times with PBST. 100 μl of an alkaline phosphatase-conjugated anti-mouse IgG (rabbit) (BD Biosciences) solution diluted 2000 fold with PBST containing 1% BSA was added and allowed to react at 37° C. for 1 hour. The plate was washed six times and then colored with p-nitrophenyl phosphate. The reaction was terminated with 100 μl/well of 3 M NaOH and the absorbance at 405 nm was measured.
The measurement of IgA was carried out in accordance with the method for IgG except that a rat anti-mouse IgA antibody (BD Biosciences) was used as the immobilized antibody, a biotinylated anti-mouse IgA antibody (rat) (BD Biosciences) was used as the labeled antibody, 3,3′,5,5′-tetramethylbenzidine solution (TMB substrate-developing solution, Sigma) was used as the chromogenic substrate, termination of the coloring was carried out using 1 M sulfuric acid, and the absorbance at 450 nm was measured.
(§4) A statistical analysis was carried out by Student's t test and a significance level of 5% or less was considered as significant difference.

mouse spleen cells [2] = experiment: IgG production upon ConA stimulation of mouse spleen cells (ELISA of culture supernatant); assay type: cell-based; conditions: for IgG concentration (amount of IgG production), mean: BALB/c mouse spleen cells, 5 days culture, supernatant; for Ability to promote IgG production upon ConA stimulation: mouse spleen cells, Student's t test, significance level 5%
Source text: as §1
In the same manner, the cells adjusted to 1×10^6 per a 48 well culture plate were, in the presence or absence of cinacalcet or γ-glutamylvaline, stimulated with 0.5 μg of ConA (concanavalin A). Thereafter, the cells were cultured in a CO2 incubator at 37° C. for 5 days and the amount of IgG antibody in the supernatant was analyzed.
as §2, §3, §4

| Structure (SMILES) | IgA concentration (amount of IgA production), mean (mouse spleen cells [1]; LPS stimulation + test substance 0.1 μM) [ng/mL] | Ability to promote IgA production upon LPS stimulation (mouse spleen cells [1]) | IgG concentration (amount of IgG production), mean (mouse spleen cells [2]; ConA stimulation + test substance 0.1 μM) [ng/mL] | Ability to promote IgG production upon ConA stimulation (mouse spleen cells [2]) | IgA concentration (amount of IgA production), mean (mouse spleen cells [1]; LPS stimulation + test substance 0.1 mM) [ng/mL] | IgG concentration (amount of IgG production), mean (mouse spleen cells [2]; ConA stimulation + test substance 0.1 mM) [ng/mL] |
| --- | --- | --- | --- | --- | --- | --- |
| C[C@@H](NCCCc1cccc(C(F)(F)F)c1)c1cccc2ccccc12 [Cinacalcet, (R)—N-(3-(3-(trifluoromethyl)phenyl)propyl)-1-(1-naphthyl)ethylamine] | 26.09 | significantly confirmed | 55.24 | significantly confirmed |  |  |
| CC(C)[C@H](NC(=O)CC[C@H](N)C(=O)O)C(=O)O [γ-GluVal, γ-glutamylvaline] |  | significantly confirmed |  | significantly confirmed | 25.28 | 62.78 |
